Test results as given in patent publication US6358883B1, “Pesticidal and parasiticidal use of 1-aryl-1-(substituted thio, sulfinyl and sulfonyl)-2-nitroethane compounds” (American Cyanamid Company, priority 1998, dated 2002).

Experiments:
Assay type in all cases: in vivo
[1] = tested on: M. incognita (Root Knot Nematode) larvae; assay: Evaluation of test compounds against M. incognita larvae in microtiter plate wells (movement score); conditions: larvae scored for movement after 20-24 hours; also: key: A score of '9' indicates inactive worms with a straight, sticklike morphology; A score of '8' indicates inactive worms with a limp, curled or curved morphology; A score of '7' indicates dead/paralyzed worms after 72 hours
How it was run: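 Newly emerged M. incognita larvae in S Medium (buffered salt solution), 50-65 worms per well, exposed to test compounds in sealed microtiter wells. Movement scored after 20-24 h incubation; wells with obviously dead/paralyzed larvae scored positive. A score of "7" denotes dead/paralyzed worms after […].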

[2] = tested on: C. elegans (Bristol strain); assay: Evaluation of test compounds against C. elegans (motility, 96-well plate); design: key: 9=complete kill in 4 hours; 8=complete kill in 24 hours; 7=markedly reduced motility in approximately 95% of worms in 24 hours; 0=normal motility, same as controls; conditions: motility at 4 and 24 hours
How it was run: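 Bristol-strain C. elegans in Na buffer added to wells containing dried compound (applied in 80% acetone) and incubated at 20 °C. Motility of adults and larvae scored subjectively but semi-quantitatively under a dissecting microscope at 4 and 24 h after immersion, plates tapped before reading.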

[3] = tested on: Spodoptera eridania, 2nd instar larvae, southern armyworm (SAW); assay: Southern armyworm (SAW) leaf dip test; design: key: 0 = no effect; 1 = 10-25% kill; 2 = 26-35% kill; 3 = 36-45% kill; 4 = 46-55% kill; 5 = 56-65% kill; 6 = 66-75% kill; 7 = 76-85% kill; 8 = 86-99% kill; 9 = 100% kill
How it was run: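 Compound is dissolved at 10,000 ppm in 35% acetone/water, then diluted with water. Lima bean leaves are dipped for 3 seconds, dried and placed with ten 2nd instar larvae on damp filter paper. Mortality, reduced feeding and molting interference are scored at 5 days.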

[4] = tested on: Diabrotica virgifera virgifera Leconte, 2nd instar western corn rootworm (WCR); assay: Western corn rootworm (WCR) soil test; design: key: 0 = no effect; 1 = 10-25% kill; 2 = 26-35% kill; 3 = 36-45% kill; 4 = 46-55% kill; 5 = 56-65% kill; 6 = 66-75% kill; 7 = 76-85% kill; 8 = 86-99% kill; 9 = 100% kill
How it was run: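 Compound in 35% acetone/water applied to talc at 1.25 mg active ingredient per jar (about 50 kg/ha), solvent evaporated, then mixed with millet seed and moist soil. Ten 2nd-instar larvae per jar; mortality counted after 5 days, missing larvae scored dead.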

[5] = tested on: Tetranychus urticae (OP-resistant strain), 2-spotted spider mite (TSM); assay: 2-spotted spider mite (TSM) plant dip test; design: key: 0 = no effect; 1 = 10-25% kill; 2 = 26-35% kill; 3 = 36-45% kill; 4 = 46-55% kill; 5 = 56-65% kill; 6 = 66-75% kill; 7 = 76-85% kill; 8 = 86-99% kill; 9 = 100% kill; conditions: mortality after 2 days
How it was run: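 OP-resistant mites (~100 per leaf) were transferred onto Sieva lima bean primary leaves about 2 h before treatment. Infested plants were dipped for 3 s in compound from a 10,000 ppm stock in 35% acetone/water, diluted with water. Mortality was counted after 2 days.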

[6] = tested on: Aphis gossypii, cotton aphid (CA); assay: Cotton aphid (CA) cotyledon dip test; design: key: 0 = no effect; 1 = 10-25% kill; 2 = 26-35% kill; 3 = 36-45% kill; 4 = 46-55% kill; 5 = 56-65% kill; 6 = 66-75% kill; 7 = 76-85% kill; 8 = 86-99% kill; 9 = 100% kill; conditions: mortality after 5 days
How it was run: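 Cotyledon-stage cotton plants infested overnight via a heavily infested leaf, then dipped in test solution (compound in 35% acetone/water, diluted with water) and dried. Mortality counted after 5 days.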

[7] = tested on: Spodoptera eridania, eggs-southern armyworm (SAW-Eggs); assay: Southern armyworm eggs (SAW-Eggs) treated diet test; design: key: 0 = no effect; 1 = 10-25% kill; 2 = 26-35% kill; 3 = 36-45% kill; 4 = 46-55% kill; 5 = 56-65% kill; 6 = 66-75% kill; 7 = 76-85% kill; 8 = 86-99% kill; 9 = 100% kill; conditions: mortality after 7 days
Protocol: (§1) Test solutions are prepared by dissolving the test compound in a 35% acetone in water mixture to give a concentration of 10,000 ppm. Subsequent dilutions are made with water as needed. Spodoptera eridania, Eggs-southern Armyworm and Diabrotica undecimpunctata howardi, Eggs-southern Corn Rootworm (SAW-Eggs) and (SCR-Eggs) Wells containing artificial diet are treated with the test solutions and dried. The appropriate insect eggs are then placed in the wells. The wells are covered with vented, adhesive, clear plastic covers. After 7 days, mortality counts are made. [table]

[8] = tested on: Diabrotica undecimpunctata howardi, eggs-southern corn rootworm (SCR-Eggs); assay: Southern corn rootworm eggs (SCR-Eggs) treated diet test; design: key: 0 = no effect; 1 = 10-25% kill; 2 = 26-35% kill; 3 = 36-45% kill; 4 = 46-55% kill; 5 = 56-65% kill; 6 = 66-75% kill; 7 = 76-85% kill; 8 = 86-99% kill; 9 = 100% kill; conditions: mortality after 7 days
Protocol: as §1

Structure (SMILES) | M. incognita (150 ppm) score [1] | Rating Against C. elegans (150 ppm) [2] | SAW (300 ppm) rating [3] | WCR (50 ppm) rating [4] | TSM (300 ppm) rating [5] | CA (300 ppm) rating [6] | SAW Eggs (300 ppm) rating [7] | SCR Eggs (1000 ppm) rating [8]
CCOC(=O)CSC(C[N+](=O)[O-])c1ccccc1 (stereo not shown) [Example 6] | 9 | 8 | 0 | 7 (7 = 76-85% kill) | 0 | 0 | 0 | 
CCCCOC(=O)CSC(C[N+](=O)[O-])c1ccccc1 (stereo not shown) [Example 7] | 9 | 8 | 0 | 0 | 0 | 0 | 0 | 
CC(C)CCCCCOC(=O)CSC(C[N+](=O)[O-])c1ccccc1 (stereo not shown) [Example 8] | 0 | 0 | 0 | 0 | 0 | 0 | 0 | 
CCCCC(CC)COC(=O)CSC(C[N+](=O)[O-])c1ccccc1 (stereo not shown) [Example 9] | 0 | 0 | 0 | 4 (4 = 46-55% kill) | 0 | 0 | 0 | 
O=[N+]([O-])CC(SCc1ccccc1)c1ccccc1 (stereo not shown) [Example 10] | 0 | 0 | 0 | 0 | 0 | 0 | 0 | 
COC(=O)CSC(C[N+](=O)[O-])c1ccccc1F (stereo not shown) [Example 39] | 9 | 9 | 4 (4 = 46-55% kill) | 8 (8 = 86-99% kill) | 0 | 0 |  | 0
CCOC(=O)CSC(C[N+](=O)[O-])c1ccccc1F (stereo not shown) [Example 40] | 9 | 8 | 3 (3 = 36-45% kill) | 9 (9 = 100% kill) | 0 | 0 |  | 0
CCCCOC(=O)CSC(C[N+](=O)[O-])c1ccccc1F (stereo not shown) [Example 41] | 9 | 7 | 1 (1 = 10-25% kill) | 9 (9 = 100% kill) | 0 | 0 |  | 0
CC(C)CCCCCOC(=O)CSC(C[N+](=O)[O-])c1ccccc1F (stereo not shown) [Example 42] | 0 | 0 | 0 | 6 (6 = 66-75% kill) | 0 | 0 |  | 9 (9 = 100% kill)
CCCCC(CC)COC(=O)CSC(C[N+](=O)[O-])c1ccccc1F (stereo not shown) [Example 43] | 0 | 0 | 4 (4 = 46-55% kill) | 7 (7 = 76-85% kill) | 0 | 0 |  | 9 (9 = 100% kill)
O=[N+]([O-])CC(SCc1ccccc1)c1ccccc1F (stereo not shown) [Example 44] | 0 | 7 | 5 (5 = 56-65% kill) | 4 (4 = 46-55% kill) | 0 | 0 |  | 0
CCCSC(C[N+](=O)[O-])c1ccccc1F (stereo not shown) [Example 45] | 0 | 0 | 0 | 8 (8 = 86-99% kill) | 0 | 0 |  | 7 (7 = 76-85% kill)
C=CCSC(C[N+](=O)[O-])c1ccccc1F (stereo not shown) [Example 46] | 9 | 7 | 1 (1 = 10-25% kill) | 9 (9 = 100% kill) | 0 | 0 |  | 0
CCOC(=O)CSC(C[N+](=O)[O-])c1ccccc1Cl (stereo not shown) [Example 89] | 8 | 0 | 0 | 0 | 0 | 0 |  | 0
CCCCOC(=O)CSC(C[N+](=O)[O-])c1ccccc1Cl (stereo not shown) [Example 90] | 8 | 7 | 0 | 0 | 3 (3 = 36-45% kill) | 0 |  | 0
CC(C)CCCCCOC(=O)CSC(C[N+](=O)[O-])c1ccccc1Cl (stereo not shown) [Example 91] | 0 | 0 | 0 | 0 | 0 | 0 |  | 0
